In patent publication US10836759B2, “Thiazole derivatives useful as mutant IDH1 inhibitors for treating cancer” (THE UNITED STATES OF AMERICA, AS REPRESENTED BY THE …, priority 2016, dated 2020) one finds IC50 data, which are given here for 21 molecules.

For one assay, the target named is IDH1 R132H (Homo sapiens, UniProt O75874, R132H). In words: Enzymatic inhibition assay, mutant IDH1 R132H (NADPH depletion coupled to diaphorase/resazurin). It is filed as biochemical. As to conditions: IDH1 R132H enzyme, IC50 class. The procedure:
(§1) Assays were conducted in a 1536-well black solid-bottom plate with a final assay volume of 9 μL.
Specifically, for IDH1 R132H, 3 μL of enzyme (4 mM β-ME, 0.0005 mg/mL IDH1 R132H, 150 mM NaCl, 20 mM Tris pH 7.5, 10 mM MgCl2, 0.05% BSA) were added to the plate, followed by the addition of 23 nL of test compound in DMSO. The plate was lidded and incubated at room temperature for 30 minutes at which time 3 μL of substrate were added (0.016 mM NADPH, 2 mM α-KG, 150 mM NaCl, 20 mM Tris pH 7.5, 10 mM MgCl2, 0.05% BSA). This reaction was incubated at room-temperature for 60 minutes at which time the detection mix was added (0.06 mg/mL diaphorase, 0.036 mM resazurin, 150 mM NaCl, 20 mM Tris pH 7.5, 10 mM MgCl2, 0.05% BSA). […]
For orientation: Alamar Blue is a resazurin reagent that responds to reducing activity.

The next assay concerns the target IDH1 R132C (Homo sapiens, UniProt O75874, R132C). The assay is described as follows: Enzymatic inhibition assay, mutant IDH1 R132C (NADPH depletion coupled to diaphorase/resazurin). It is filed as biochemical. The following applies: IDH1 R132C enzyme, IC50 class. The protocol: as §1
For IDH1 R132C, 3 μL of enzyme (0.00032 mg/mL IDH1 R132H, 10% glycerol, 50 mM potassium phosphate pH 6.5, 5 mM MgCl2, 0.03% BSA) were added to the plate, followed by the addition of 23 nL of test compound in DMSO. The plate was lidded and incubated at room temperature for 30 minutes at which time 3 μL of substrate were added (0.012 mM NADPH, 0.6 mM α-KG, 10% glycerol, 50 mM potassium phosphate pH 6.5, 5 mM MgCl2, 0.03% BSA). […]

Sequence of IDH1 R132C (O75874 whole entry R132C): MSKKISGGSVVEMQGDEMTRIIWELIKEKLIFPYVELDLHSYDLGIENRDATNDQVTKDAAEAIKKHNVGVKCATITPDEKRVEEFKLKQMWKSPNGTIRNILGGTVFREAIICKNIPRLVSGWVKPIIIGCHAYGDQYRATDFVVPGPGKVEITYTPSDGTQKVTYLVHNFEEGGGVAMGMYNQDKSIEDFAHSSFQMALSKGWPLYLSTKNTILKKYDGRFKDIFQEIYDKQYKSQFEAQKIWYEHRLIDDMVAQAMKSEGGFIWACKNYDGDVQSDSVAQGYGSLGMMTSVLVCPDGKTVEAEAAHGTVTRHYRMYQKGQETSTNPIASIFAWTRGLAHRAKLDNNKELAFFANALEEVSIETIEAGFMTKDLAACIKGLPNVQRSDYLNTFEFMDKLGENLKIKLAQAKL
Sequence of IDH1 R132H (O75874 whole entry R132H): as the sequence (O75874 whole entry R132C) above, with C132H counted along it

With `CCOc1ccc(Cl)cc1-n1c(C=C(C)C)c(C(=O)N2CCNCC2)cc(-c2nc(-c3ccc(C#N)cc3)cs2)c1=O` (single isomer, unassigned) [Compound 140-1], the concentration for half-maximal inhibition (IC50) against IDH1 R132H and against IDH1 R132C was less than 300 nM throughout.

With `CCc1cccc(CC)c1-n1c(C=C(C)C)c(C(=O)N2CCNC[C@H]2C)cc(-c2nc(-c3ccc(Cl)cc3)cs2)c1=O` [Compound 123], the concentration for half-maximal inhibition (IC50) on IDH1 R132H and at IDH1 R132C was less than 300 nM in each case.

With `CCOc1ccc(C#N)cc1-n1c(C=C(C)C)c(C(=O)N2CCNCC2)cc(-c2nc(-c3ccc(Cl)cc3)cs2)c1=O` [Compound 136], the IC50 against IDH1 R132H and against IDH1 R132C was less than 300 nM each time.

Take `CCc1ccc(Cl)cc1-n1c(C=C(C)C)c(C(=O)N2CC3CCC(C2)N3)cc(-c2nc(-c3ccc(Cl)cc3)cs2)c1=O` [Compound 133]: the IC50 against IDH1 R132H and against IDH1 R132C was less than 300 nM each time.

Regarding `CCOc1ccc(Cl)cc1-n1c(C=C(C)C)c(C(=O)N2CC3CCC(C2)N3)cc(-c2nc(-c3ccc(C#N)cc3)cs2)c1=O` (single isomer, unassigned) [Compound 141-2], the IC50 (in general, the point on the concentration scale where inhibition reaches its midpoint) on IDH1 R132H was 300 to 1000 nM; on IDH1 R132C it was less than 300 nM.

With `CCc1cccc(CC)c1-n1c(C=C(C)C)c(C(=O)N2CCN[C@H](C)C2)cc(-c2nc(-c3ccc(C(F)F)cc3)cs2)c1=O` [Compound 111], the IC50 on IDH1 R132H and at IDH1 R132C was less than 300 nM throughout.

Regarding `CCc1ccc(OC)cc1-n1c(C=C(C)C)c(C(=O)N2CCNCC2)cc(-c2nc(-c3ccc(C(F)(F)F)cc3)cs2)c1=O` [Compound 102], the IC50 against IDH1 R132H and against IDH1 R132C was less than 300 nM in each case.

`CCc1cccc(CC)c1-n1c(C=C(C)C)c(C(=O)N2CCN[C@H](C)C2)cc(-c2nc(-c3ccc(Cl)cc3)cs2)c1=O` [Compound 112]: the 50% inhibitory concentration (IC50) at IDH1 R132H and at IDH1 R132C was less than 300 nM throughout.

In the case of `CCOc1ccc(Cl)c(-n2c(C=C(C)C)c(C(=O)N3C[C@H]4CC[C@@H](C3)N4)cc(-c3nc(-c4ccc(C(F)(F)F)cc4)cs3)c2=O)c1` [Compound 127], the IC50 against IDH1 R132H and on IDH1 R132C was less than 300 nM in each case.

As for `CCc1cccc(CC)c1-n1c(C=C(C)C)c(C(=O)N2CCNC[C@@H]2C)cc(-c2nc(-c3ccc(Cl)cc3)cs2)c1=O` [Compound 124], the IC50 on IDH1 R132H and against IDH1 R132C was less than 300 nM throughout.

Turning to `CCOc1ccc(Cl)cc1-n1c(C=C(C)C)c(C(=O)N2CC3CCC(C2)N3)cc(-c2nc(-c3ccc(Cl)cc3)cs2)c1=O` (single isomer, unassigned) [Compound 113-1], the IC50 on IDH1 R132H and on IDH1 R132C was less than 300 nM throughout.

In the case of `CCc1ccc(Cl)cc1-n1c(C=C(C)C)c(C(=O)N2CC3CCC(C2)N3)cc(-c2nc(-c3ccc(Cl)cc3)cs2)c1=O` (single isomer, unassigned) [Compound 133-2], the concentration for half-maximal inhibition (IC50) lay within 1000 to 5000 nM against IDH1 R132H and 300 to 1000 nM on IDH1 R132C.

As for `CCOc1ccc(Cl)c(-n2c(C=C(C)C)c(C(=O)N3CCNCC3)cc(-c3nc(-c4ccc(C(F)F)cc4)cs3)c2=O)c1` [Compound 106], the IC50 on IDH1 R132H and at IDH1 R132C was less than 300 nM throughout.

Turning to `CCc1ccc(OC)cc1-n1c(C=C(C)C)c(C(=O)N2CCNCC2)cc(-c2nc(-c3ccc(C(F)F)cc3)cs2)c1=O` [Compound 104], the IC50 against IDH1 R132H and against IDH1 R132C was less than 300 nM each time.

On to `CC(C)=Cc1c(C(=O)N2CCNCC2)cc(-c2nc(-c3ccc(Cl)cc3)cs2)c(=O)n1-c1cc(N(C)C)ccc1Cl` [Compound 147], for which the IC50 at IDH1 R132H and on IDH1 R132C was less than 300 nM each time.

For `CCOc1ccc(Cl)c(-n2c(C=C(C)C)c(C(=O)N3CCNCC3)cc(-c3nc(-c4ccc(OC)nc4)cs3)c2=O)c1` [Compound 137], the IC50 against IDH1 R132H and on IDH1 R132C was less than 300 nM throughout.

In the case of `CCOc1ccc(Cl)cc1-n1c(C=C(C)C)c(C(=O)N2C[C@H]3CC[C@@H](C2)N3)cc(-c2nc(-c3ccc(C(F)F)cc3)cs2)c1=O` [Compound 125], the IC50 against IDH1 R132H and at IDH1 R132C was less than 300 nM in each case.

For the molecule `CCOc1ccc(Cl)cc1-n1c(C=C(C)C)c(C(=O)N2CC3CCC(C2)N3)cc(-c2nc(-c3ccc(C(F)(F)F)cc3)cs2)c1=O` [Compound 115], the half-maximal inhibitory concentration (IC50) against IDH1 R132H and at IDH1 R132C was less than 300 nM each time.

Consider `CCc1cccc(CC)c1-n1c(C=C(C)C)c(C(=O)N2CCNC[C@@H]2C)cc(-c2nc(-c3ccc(C(F)F)cc3)cs2)c1=O` [Compound 132], for which the IC50 on IDH1 R132H and against IDH1 R132C was less than 300 nM each time.

In the case of `CCOc1ccc(Cl)c(-n2c(C=C(C)C)c(C(=O)N3C[C@H]4CC[C@@H](C3)N4)cc(-c3nc(-c4ccc(Cl)cc4)cs3)c2=O)c1` [Compound 126], the 50% inhibitory concentration (IC50) against IDH1 R132H and at IDH1 R132C was less than 300 nM throughout.

Regarding `CCc1cccc(CC)c1-n1c(C=C(C)C)c(C(=O)N2CC3CCC(C2)N3)cc(-c2nc(-c3ccc(C(F)F)cc3)cs2)c1=O` [Compound 116], the 50% inhibitory concentration (IC50) against IDH1 R132H and against IDH1 R132C was less than 300 nM throughout.
